The values below come from ChEMBL document CHEMBL4190235, “Polysubstituted 2-aminoimidazoles as anti-biofilm and antiproliferative agents: Discovery of potent lead” (Eur J Med Chem, 2017).

In test [1] the test system is Pseudomonas aeruginosa. The test can be described thus: Antibiofilm activity against Pseudomonas aeruginosa PA14 after 24 hrs by crystal violet staining based method. The class given is functional.
The subject of test [2] is Pseudomonas aeruginosa. The test can be described thus: Inhibition of planktonic growth of Pseudomonas aeruginosa PA14 cells. The class given is organism-based.
Test [3] concerns Salmonella typhimurium. The test can be described thus: Antibiofilm activity against Salmonella typhimurium ATCC 14028 after 24 hrs by crystal violet staining based method. The class given is functional, Salmonella enterica subsp. enterica serovar Typhimurium.
In test [4] the test system is Salmonella typhimurium. Briefly: Inhibition of planktonic growth of Salmonella typhimurium ATCC 14028. The class given is organism-based, Salmonella enterica subsp. enterica serovar Typhimurium. The following applies: Salmonella enterica.
The subject of test [5] is Staphylococcus aureus. Briefly: Antibiofilm activity against Staphylococcus aureus SH1000 after 48 hrs by crystal violet staining based method. The class given is functional.
In test [6] the test system is Staphylococcus aureus. Briefly: Inhibition of planktonic growth of Staphylococcus aureus SH1000. The class given is organism-based.
Test [7] relates to A-375. Briefly: Antiproliferative activity against human A375 cells after 48 hrs by MTT assay. The class given is functional, cell-based. As to conditions: A-375, 48 h.
The subject of test [8] is MIA PaCa-2. The test can be described thus: Antiproliferative activity against human MIAPaCa2 cells after 48 hrs by MTT assay. As to conditions: MIA PaCa-2, 48 h. The class given is functional, cell-based. (Tetrazolium assays rely on reduction of a dye to a coloured formazan, in cell work by metabolically active cells.)
The test system of test [9] is A-375. Briefly: Cytotoxicity against human A375 cells assessed as reduction in cell viability at IC50 concentration after 24 hrs by calcein AM-dye based assay. The class given is functional.
Test [10] deals with MIA PaCa-2. Briefly: Cytotoxicity against human MIAPaCa2 cells assessed as reduction in cell viability at IC50 concentration after 24 hrs by calcein AM-dye based assay. The class given is functional.
For test [11], the system named is A-375. The test can be described thus: Antiproliferative activity against human A375 cells assessed as reduction in colony forming ability at IC50 concentration after 10 to 14 days by crystal violet-staining based assay. The class given is functional, cell-based.
For test [12], the system named is MIA PaCa-2. The test can be described thus: Antiproliferative activity against human MIAPaCa2 cells assessed as reduction in colony forming ability at IC50 concentration after 10 to 14 days by crystal violet-staining based assay. The class given is functional, cell-based.
Test [13] has as its system A-375. The test can be described thus: Cell cycle arrest in human A375 cells assessed as accumulation at subG1 phase at IC50 concentration after 48 hrs by propidium iodide staining based flow cytometry (reference value: 1.1 +/- 0.4%). The class given is functional. For orientation: A flow cytometer gives signals particle by particle.
The test system of test [14] is A-375. Briefly: Cell cycle arrest in human A375 cells assessed as accumulation at G0/G1 phase at IC50 concentration after 48 hrs by propidium iodide staining based flow cytometry (reference value: 64.18 +/- 2.6%). The class given is functional.
In test [15] the test system is A-375. The test can be described thus: Cell cycle arrest in human A375 cells assessed as accumulation at S phase at IC50 concentration after 48 hrs by propidium iodide staining based flow cytometry (reference value: 30.48 +/- 1.4%). The class given is functional.
Test [16] relates to A-375. The test can be described thus: Cell cycle arrest in human A375 cells assessed as accumulation at G2/M phase at IC50 concentration after 48 hrs by propidium iodide staining based flow cytometry (reference value: 8.18 +/- 2.2%). The class given is functional.
For test [17], the system named is MIA PaCa-2. The test can be described thus: Cell cycle arrest in human MIAPaCa2 cells assessed as accumulation at subG1 phase at IC50 concentration after 48 hrs by propidium iodide staining based flow cytometry (reference value: 1.53 +/- 0.4%). The class given is functional.
Test [18] relates to MIA PaCa-2. The test can be described thus: Cell cycle arrest in human MIAPaCa2 cells assessed as accumulation at G0/G1 phase at IC50 concentration after 48 hrs by propidium iodide staining based flow cytometry (reference value: 66.05 +/- 2.2%). The class given is functional.
Test [19] deals with MIA PaCa-2. The test can be described thus: Cell cycle arrest in human MIAPaCa2 cells assessed as accumulation at S phase at IC50 concentration after 48 hrs by propidium iodide staining based flow cytometry (reference value: 17.29 +/- 1.8%). The class given is functional.
Test [20] concerns MIA PaCa-2. The test can be described thus: Cell cycle arrest in human MIAPaCa2 cells assessed as accumulation at G2/M phase at IC50 concentration after 48 hrs by propidium iodide staining based flow cytometry (reference value: 16.66 +/- 0.8%). The class given is functional.

Structures are written as SMILES. Active and inactive are the calls of the source. No cut-off for these calls is given here.

Regarding `Cc1ccc(Cc2nc(N)n(CC(=O)Nc3ccc(C)cc3)c2-c2ccccc2Br)cc1`, the MBIC50 was 191 µM in the test with Pseudomonas aeruginosa [1], 3.6 µM in the test with Salmonella typhimurium [3] and 5.5 µM in the test with Staphylococcus aureus [5]. For the same compound, the half-inhibitory concentration (IC50) was 10.9 µM with Pseudomonas aeruginosa [2]; greater than 400 µM with Salmonella typhimurium [4]; 5.8 µM with Staphylococcus aureus [6]; 1.3 µM in the test on A-375 [7]; 2.9 µM with MIA PaCa-2 [8]. In addition, the result in the test on A-375 [9], with MIA PaCa-2 [10], in the test on A-375 [11] and with MIA PaCa-2 [12] was Active. Besides, the Activity with A-375 [13] was determined as 24.71%; in the test with A-375 [14], 36.34%; in the test with A-375 [15], 26.59%; in the test on A-375 [16] it was 66.85%; in the test on MIA PaCa-2 [17] it was 16.33%; in the test on MIA PaCa-2 [18] it was 36.39%. The Activity turned out to be 17.04% in the test on MIA PaCa-2 [19] and 48.99% in the test with MIA PaCa-2 [20].
For the compound `COc1ccc(Cc2nc(N)n(CC(=O)Nc3ccccc3)c2-c2ccccc2Br)cc1`, the MBIC50 with Pseudomonas aeruginosa [1] is 12.6 µM; with Salmonella typhimurium [3] it was 17 µM; in the test with Staphylococcus aureus [5], 4.3 µM. In addition, the IC50 in the test with Pseudomonas aeruginosa [2] was 13.1 µM; with Salmonella typhimurium [4] it was 46.4 µM; with Staphylococcus aureus [6], 23.3 µM; with A-375 [7], 1.4 µM; with MIA PaCa-2 [8], 3.2 µM. The outcome with A-375 [9], in the test with MIA PaCa-2 [10], in the test on A-375 [11] and with MIA PaCa-2 [12] was Active. Moreover, the Activity in the test with A-375 [13] was determined as 19.88%; with A-375 [14], 43.56%; in the test on A-375 [15], 32.1%; with A-375 [16] it was 55.33%; with MIA PaCa-2 [17] it was 11.21%; in the test with MIA PaCa-2 [18], 50.41%. Further, the Activity in the test on MIA PaCa-2 [19] is 24.5%; in the test on MIA PaCa-2 [20] it was 40.45%.
Consider `COc1ccc(Cc2nc(N)n(CC(=O)Nc3ccc(C)cc3)c2-c2ccccc2Br)cc1`, for which the MBIC50 with Pseudomonas aeruginosa [1] stood at 8.9 µM; with Salmonella typhimurium [3], 6.3 µM; in the test on Staphylococcus aureus [5] it was 8.2 µM. Moreover, the IC50 in the test on Pseudomonas aeruginosa [2] is 24.6 µM; in the test on Salmonella typhimurium [4], 50.5 µM; in the test on Staphylococcus aureus [6], 16.1 µM; in the test on A-375 [7] it was 2.4 µM; in the test on MIA PaCa-2 [8] it was 5.2 µM.
With `Cc1ccc(NC(=O)Cn2c(N)nc(CC3CCCCC3)c2-c2ccccc2Br)cc1`, the MBIC50 with Pseudomonas aeruginosa [1], in the test on Salmonella typhimurium [3] and in the test on Staphylococcus aureus [5] was greater than 400 µM each time. For the same compound, the half-inhibitory concentration (IC50) in the test on Pseudomonas aeruginosa [2] was greater than 400 µM; in the test on Salmonella typhimurium [4], greater than 400 µM; with Staphylococcus aureus [6], greater than 400 µM; in the test on A-375 [7], 17.5 µM; in the test on MIA PaCa-2 [8] it was 48.8 µM.
For the compound `Cc1ccc(NC(=O)Cn2c(N)nc(Cc3ccc(C(C)(C)C)cc3)c2-c2ccccc2Br)cc1`, the MBIC50 in the test with Pseudomonas aeruginosa [1] is greater than 400 µM; in the test on Salmonella typhimurium [3], 17.6 µM; in the test with Staphylococcus aureus [5] it was 3.9 µM. Further, the IC50 in the test on Pseudomonas aeruginosa [2] is greater than 400 µM; with Salmonella typhimurium [4] it was greater than 400 µM; with Staphylococcus aureus [6] it was 7.9 µM; with A-375 [7], 1.4 µM; in the test on MIA PaCa-2 [8], 3.4 µM.
Regarding `Cc1ccc(NC(=O)Cn2c(N)nc(CC3CC3)c2-c2ccccc2Br)cc1`, the MBIC50 was 16 µM in the test on Pseudomonas aeruginosa [1], 21.3 µM in the test on Salmonella typhimurium [3] and 21.9 µM in the test on Staphylococcus aureus [5]. The half-maximal inhibitory concentration (IC50) in the test with Pseudomonas aeruginosa [2] is 23.6 µM; with Salmonella typhimurium [4], 24.5 µM; in the test with Staphylococcus aureus [6], 30.6 µM; in the test on A-375 [7], 2.6 µM; with MIA PaCa-2 [8] it was 3.5 µM.
With `CCCCCc1nc(N)n(CC(=O)Nc2ccc(C)cc2)c1-c1ccccc1Br`, the values for the MBIC50 with Pseudomonas aeruginosa [1], in the test with Salmonella typhimurium [3] and with Staphylococcus aureus [5] were 42.4 µM, 31.5 µM and 29.8 µM, respectively. Also, the IC50 with Pseudomonas aeruginosa [2] came to 76 µM; with Salmonella typhimurium [4], 200 µM; in the test on Staphylococcus aureus [6], 33.2 µM; in the test with A-375 [7], 4.3 µM; in the test with MIA PaCa-2 [8], 5.6 µM.
`CCCCCCc1nc(N)n(CC(=O)Nc2ccccc2)c1-c1ccccc1Br`: the MBIC50 in the test with Pseudomonas aeruginosa [1] was 50.7 µM; with Salmonella typhimurium [3], 35.7 µM; with Staphylococcus aureus [5], 6.6 µM. For the same compound, the half-inhibitory concentration (IC50) in the test on Pseudomonas aeruginosa [2] is 119 µM; with Salmonella typhimurium [4], greater than 400 µM; with Staphylococcus aureus [6] it was 16.3 µM; with A-375 [7], 5.7 µM; in the test with MIA PaCa-2 [8], 8.6 µM.
Turning to `CCCCCc1nc(N)n(CC(=O)Nc2ccccc2)c1-c1ccccc1Br`, the figures for the MBIC50 in the test on Pseudomonas aeruginosa [1], in the test on Salmonella typhimurium [3] and with Staphylococcus aureus [5] were greater than 400 µM, greater than 400 µM and 21.3 µM, respectively. The IC50 in the test on Pseudomonas aeruginosa [2] was greater than 400 µM; in the test with Salmonella typhimurium [4], greater than 400 µM; with Staphylococcus aureus [6], greater than 400 µM; in the test on A-375 [7] it was 26.4 µM; with MIA PaCa-2 [8], 40.6 µM.

For orientation: IC50 means the point on the concentration scale where inhibition reaches its midpoint.
